This note sets out measurements from publication PMC6792352, “Limited Chemical Structural Diversity Found to Modulate Thyroid Hormone Receptor in the Tox21 Chemical Library” (Environmental Health Perspectives, 2019).

The nature of the series: in vitro. The following applies: rat, gh3-tre-luc cells.

Structures can show the parent of a compound that is named as a salt.

What is called CC50 is the concentration giving 50% cytotoxicity. Low readings indicate greater toxicity to the cells, high ones lower toxicity to the cells. The compound `O=[N+]([O-])c1cc([N+](=O)[O-])c2ccc(S(=O)(=O)O)cc2c1O` [8-Hydroxy-5,7-dinitro-2-naphthalenesulfonic acid] returned a CC50 at 24 h (AC50 (uM) modified / 1000) of 65.4 µM.
Still for that read-out and setting: under `CC(=O)c1ccc2c(c1)N(CCCN1CCN(CCO)CC1)c1ccccc1S2` [Acetophenazine dimaleate] stands 16.5 µM.
On the same count and under the same terms, for `CCCc1ccc(O)c(OC)c1` [2-Methoxy-4-propylphenol] the value was above 90 µM.
Still for that read-out and setting: under `C#CCOc1ccc2c(C)cc(=O)oc2c1` [Giparmen] stands above 50 µM.
Regarding `C[C@]1(O)CC[C@H]2[C@@H]3CCC4=CC(=O)CC[C@]4(C)[C@@]3(F)[C@@H](O)C[C@@]21C` [Fluoxymestrone], the CC50 at 24 h was above 50 µM (AC50 (uM) modified / 1000, Tox21_110001=Tox21_113158, viability, 1 nM T3 present, 24 h) and above 90 µM (AC50 (uM) modified / 1000, Tox21_110001=Tox21_200854, viability, 1 nM T3 present, 24 h).
For the compound `OCCOCCO` [Diethylene glycol], under “AC50 (uM) modified / 1000”, the CC50 at 24 h is above 90 µM.
Same read-out and setting: for `OCC(CO)N[C@H]1C[C@](O)(CO)[C@@H](O)[C@H](O)[C@H]1O` [Voglibose] the value was above 50 µM.
On the same count and under the same terms, for `CC[C@H](C)[C@H]1O[C@]2(CC[C@@H]1C)C[C@@H]1C[C@@H](C/C=C(\C)[C@@H](O[C@H]3C[C@H](OC)[C@@H](O[C@H]4C[C@H](OC)[C@@H](O)[C@H](C)O4)[C@H](C)O3)[C@@H](C)/C=C/C=C3\CO[C@@H]4[C@H](O)C(C)=C[C@@H](C(=O)O1)[C@]34O)O2` [Ivermectin B1a] the value was 2.85 µM; for `CC(C)(C)CC(=O)OCC(=O)[C@@]12OC(C)(C)O[C@@H]1C[C@H]1[C@@H]3CCC4=CC(=O)C=C[C@]4(C)[C@@]3(F)[C@@H](O)C[C@@]12C` [Triamcinolone hexacetonide], above 50 µM.
In turn, `N#CCc1ccc(Cl)cc1Cl` [(2,4-Dichlorophenyl)acetonitrile] displayed a CC50 at 24 h (AC50 (uM) modified / 1000) above 90 µM.
Still for that read-out and setting: for `Cc1nnc2n1-c1sc(Br)cc1C(c1ccccc1Cl)=NC2` [Brotizolam] the value was 32.6 µM; for `O=C(O)C1(C(=O)Nc2ccc(Cl)cc2Cl)CC1` [Cyclanilide], above 90 µM.
As to `CCc1cccc(CC)c1NC(=O)CN(CC(=O)O)CC(=O)O` [Etifenin], the CC50 at 24 h (AC50 (uM) modified / 1000) is above 20 µM.
Still for that read-out and setting: under `O=C1NCN(c2ccccc2)C12CCN(CCCC(c1ccc(F)cc1)c1ccc(F)cc1)CC2` [Fluspirilene] stands 4.02 µM; under `O=C(O)CCSSCCC(=O)O` [3,3'-Dithiodipropionic acid], above 90 µM.
With `Oc1ccccc1-c1ccccc1` [2-Phenylphenol], under “AC50 (uM) modified / 1000, Tox21_110001=Tox21_202415, viability, 1 nM T3 present, 24 h”, the CC50 at 24 h was above 90 µM.
Compound `O=S(=O)(c1ccc(Cl)cc1)c1cc(Cl)c(Cl)cc1Cl` [Tetradifon] registered a CC50 at 24 h (AC50 (uM) modified / 1000) of 60.5 µM.
On the same count and under the same terms, under `C1CCC2=NCCCN2CC1` [1,8-Diazabicyclo[5.4.0]undec-7-ene] stands above 90 µM.
Take `C1CCC(C2CCCCC2)CC1` [Dicyclohexyl]: the CC50 at 24 h (AC50 (uM) modified / 1000, Tox21_110001=Tox21_302104, viability, 1 nM T3 present, 24 h) was above 90 µM.
In turn, `NNCc1ccccc1` [Benzylhydrazine dihydrochloride] displayed a CC50 at 24 h (AC50 (uM) modified / 1000, Tox21_110001=Tox21_200489, viability, 1 nM T3 present, 24 h) above 90 µM.
For the compound `O=c1[nH]c2ccccc2o1` [2-Benzoxazolinone], the CC50 at 24 h (AC50 (uM) modified / 1000) was above 90 µM.
Same read-out and setting: under `CC(C)CC(C)O` (stereo not shown) [4-Methyl-2-pentanol] stands above 90 µM; under `CC(=O)NNC(C)=O` [Diacetyl hydrazine], above 90 µM.
With `CCCCOC(=O)CC` [Butyl propionate], the CC50 at 24 h (AC50 (uM) modified / 1000) was above 90 µM.
On the same count and under the same terms, for `CCCC(=O)O[C@]1(C(=O)COC(=O)CC)[C@@H](C)C[C@H]2[C@@H]3CCC4=CC(=O)C=C[C@]4(C)[C@@]3(F)[C@@H](O)C[C@@]21C` [Betamethasone butyrate propionate] the value was above 50 µM.
Same read-out and setting: under `O=S(=O)(O)c1ccc(O)c2ncccc12` [8-Hydroxyquinoline-5-sulfonic acid hydrate (1:x)] stands above 90 µM; under `O=C1CC(=O)NC(=O)N1` [Barbituric acid], above 90 µM; under `c1cncc([C@@H]2CCCCN2)c1` [L-3-(2'-Piperidyl)pyridine], above 90 µM.
The same measure, in the same setting: for `CCc1ccc(CC)cc1` [1,4-Diethylbenzene] the value was above 90 µM; for `O=Cc1c(Cl)cccc1Cl` [2,6-Dichlorobenzaldehyde], above 90 µM.
